What was measured:
Test in all cases: Test C postemergence herbicide test
chickweed = type: in vivo, Stellaria media; conditions: for Chickweed plant response rating: 500 g ai/ha
Method: At the same time, plants selected from these crop and weed species and also winter barley (Hordeum vulgare L.), blackgrass (Alopecurus myosuroides Huds.), canarygrass (Phalaris minor Retz.), chickweed (Stellaria media (L.) Vill.), downy bromegrass (Bromus tectorum L.), green foxtail (Setaria viridis (L.) Beauv.), Italian ryegrass (Lolium multiflorum Lam.), wheat (Triticum aestivum L.), wild oat (Avenafatua L.) and windgrass (Apera spica-venti (L.) Beauv.) were treated with postemergence applications of some of the test chemicals formulated in the same manner. Plants ranged in height from 2 to 18 cm (1- to 4-leaf stage) for postemergence treatments. Plant species in the flooded paddy test consisted of rice (Oryza sativa), smallflower umbrella sedge (Cyperus difformis L.), ducksalad (Heteranthera limosa (Sw.) Willd.) and barnyardgrass (Echinochloa crus-galli (L.) Beauv.) grown to the 2-leaf stage for testing. Treated plants and controls were maintained in a greenhouse for 12 to 14 days, after which time all species were compared to controls and visually evaluated. Plant response ratings, summarized in Table C, are based on a scale of 0 to 100 where 0 is no effect and 100 is complete control. A dash (-) response means no test result.

canarygrass = type: in vivo, Phalaris minor
Outline: (§1)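 Injury scored visually against controls on a 0 (no effect) to 100 (complete control) scale, 12 to 14 days after treatment in greenhouse. Flooded paddy plants treated at 2-leaf stage; postemergence plants at 1- to 4-leaf stage, 2 to 18 cm tall.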

wild oat = type: in vivo, Avenafatua
Outline: as §1

Italian ryegrass = type: in vivo, Lolium multiflorum
Outline: as §1

[1] = Postemergence, 125 g ai/ha, scale 0 to 100, 0 no effect, 100 complete control
[2] = Postemergence, 250 g ai/ha, scale 0 to 100, 0 no effect, 100 complete control
[3] = postemergence, 62 g ai/ha, scale 0 to 100
[4] = postemergence, 31 g ai/ha, scale 0 to 100
[5] = postemergence, 125 g ai/ha, scale 0 to 100
[6] = Postemergence, 500 g ai/ha, scale 0 to 100
[7] = Postemergence, 500 g ai/ha, scale 0 to 100, 0 no effect, 100 complete control

Structure (SMILES) | Plant response rating, Chickweed (chickweed; [2]) | Plant response rating, Chickweed (chickweed; [3]) | Chickweed plant response rating (chickweed; Postemergence, scale 0 to 100) | Plant response rating, Canarygrass (canarygrass; [2]) | Plant response rating, Canarygrass (canarygrass; [5]) | Plant response rating, Canarygrass (canarygrass; [3]) | Plant response rating, Oat, Wild (wild oat; [2]) | Plant response rating, Oat, Wild (wild oat; [5]) | Plant response rating, Oat, Wild (wild oat; [3]) | Plant response rating, Ryegrass, Italian (Italian ryegrass; [2]) | Plant response rating, Ryegrass, Italian (Italian ryegrass; [5]) | Plant response rating, Ryegrass, Italian (Italian ryegrass; [3]) | Plant response rating, Chickweed (chickweed; [5]) | also measured
CCNC(=O)c1cccc(NC(=O)c2cc(C(C)(C)C)nn2CC(F)(F)F)c1 [Compound 31] | 100 | 90 | – | – | – | – | – | – | – | – | – | – | – | Plant response rating, Chickweed (chickweed; [1]): 90
C=Cn1nc(C(C)(C)C)cc1C(=O)Nc1cccc(C(=O)N(CC)CC)c1 [Compound 34] | 60 | – | 100 | – | – | – | – | – | – | – | – | – | – | Plant response rating, Chickweed (chickweed; [1]): 50
CCNC(=O)c1cccc(NC(=O)c2cc(C(C)(C)C)nn2CCF)c1 [Compound 35] | – | 80 | – | – | – | – | – | – | – | – | – | – | – | Plant response rating, Chickweed (chickweed; [1]): 90; Plant response rating, Chickweed (chickweed; postemergence, 16 g ai/ha, scale 0 to 100): 70; Plant response rating, Chickweed (chickweed; [4]): 70
CCn1nc(C(C)(C)C)cc1C(=O)Nc1cccc(C(=O)NC2CC2)c1 [Compound 44] | 90 | 90 | – | – | – | – | – | – | – | – | – | – | – | Plant response rating, Chickweed (chickweed; [1]): 90
CCn1nc(C(C)(C)C)cc1C(=O)Nc1cccc(C(=O)NCC2CC2)c1 [Compound 62] | – | – | – | 40 | 30 | 0 | 50 | 40 | 30 | 40 | 20 | 20 | – | Plant response rating, Canarygrass (canarygrass; [4]): 0
CCOC(=O)c1cccc(NC(=O)c2cc(C(C)(C)C)nn2CC)c1 [Compound 80, ethyl 3-[[[3-(1,1-dimethylethyl)-1-ethyl-1H-pyrazol-5-yl]carbonyl]-amino]benzoate] | 100 | 100 | – | – | – | – | – | – | – | – | – | – | 100 | Plant response rating, Chickweed (chickweed; [4]): 90
CCn1nc(C(C)(C)C)cc1C(=O)Nc1cccc(C(=O)OCCF)c1 [Compound 82, 2-fluoroethyl 3-[[[3-(1,1-dimethylethyl)-1-ethyl-1H-pyrazol-5-yl]-carbonyl]amino]benzoate] | 100 | 70 | 100 | – | – | – | – | – | – | – | – | – | 95 | –
CCCCOc1cccc(NC(=O)c2cc(C(C)(C)C)nn2CC)c1 [Compound 137] | – | – | – | 40 | 30 | 20 | 40 | 40 | 20 | 40 | 40 | 20 | – | Canarygrass plant response rating (canarygrass; [6]): 40; Oat, Wild plant response rating (wild oat; [6]): 50; Ryegrass, Italian plant response rating (Italian ryegrass; [6]): 60
C#CCNC(=O)c1cccc(NC(=O)c2cc(C(C)(C)C)nn2CC)n1 [Compound 147] | 90 | 5 | 100 | – | – | – | – | – | – | – | – | – | 30 | –
CCc1nc(C(C)(C)C)sc1C(=O)Nc1cccc(C(=O)NCC2CC2)c1 [Compound 212] | 80 | 60 | 100 | – | – | – | – | – | – | – | – | – | 80 | –
CCOC(=O)c1cccc(NC(=O)c2cc(C3(C)CC3)nn2CC)c1 [Compound 295] | 100 | 100 | – | 35 | 35 | 30 | 50 | 50 | 50 | 65 | 40 | 40 | 100 | Plant response rating, Canarygrass (canarygrass; [4]): 25; Plant response rating, Chickweed (chickweed; [4]): 85
CCn1nc(C2(C)CC2)cc1C(=O)Nc1cc(C(=O)N2CC=CC2)ccc1F [Compound 301] | – | – | – | 50 | 45 | 35 | 75 | 65 | 45 | 45 | 45 | 35 | – | Canarygrass plant response rating (canarygrass; [6]): 50; Oat, Wild plant response rating (wild oat; [6]): 60; Ryegrass, Italian plant response rating (Italian ryegrass; [6]): 65
C=CCNC(=O)c1cccc(NC(=O)c2cc(C(C)(C)C)nn2C)n1 [Compound 318] | 10 | 0 | 80 | – | – | – | – | – | – | – | – | – | 0 | –
CCn1nc(C(C)(C)C)cc1C(=O)Nc1cc(OC(F)(F)F)ccc1F [Compound 338] | – | – | – | 40 | 25 | 20 | 50 | 45 | 40 | 50 | 30 | 25 | – | Plant response rating, Canarygrass (canarygrass; [7]): 50; Plant response rating, Oat, Wild (wild oat; [7]): 60; Plant response rating, Ryegrass, Italian (Italian ryegrass; [7]): 60
CCn1nc(C(C)(C)C)cc1C(=O)Nc1cccc(OS(=O)(=O)CC)c1 [Compound 408] | – | – | – | 40 | 30 | 20 | – | 55 | 45 | – | 45 | 40 | – | Plant response rating, Canarygrass (canarygrass; [7]): 45; Plant response rating, Oat, Wild (wild oat; [7]): 70; Plant response rating, Ryegrass, Italian (Italian ryegrass; [7]): 70
